Laboratory results as given in PubChem BioAssay AID1845219 (Molecular Pharmacology Branch, DTP, NCI, 2023).

Tested on: SYO-1 tumor spheroids, viability % test/control
Assay: Anticancer human tumor SYO-1 cell line growth inhibition;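 further: spheroids exposed to agents for 7 days before viability read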;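 on viability, T/C: 100% = DMSO vehicle control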
Details: spheroids with HUVEC and MSC; for IC50: curve of first compound; for viability, T/C: stronger effect = lower value
From the text: Multicellular complex tumor spheroid response to DNA repair inhibitors in combination with DNA-damaging drugs
This study explores the anticancer activities of DNA-damaging drugs and inhibitors of DNA damage repair, both as single agents and in combinations. Complex tumor spheroids comprised of malignant cells, endothelial cells and mesenchymal stem cells served as an in vitro model for human solid tumors. This model system incorporates physiologically relevant features and patient-derived or established malignant cell lines with clinically relevant genetic alterations from many tumor types. Twenty-six patient-derived or established malignant cell lines were evaluated representing sarcoma, melanoma, small cell lung cancer (SCLC), non-small cell lung cancer (NSCLC), as well as bladder, ovarian and pancreatic cancers. The concentration ranges selected for each drug and investigational agent were based upon clinically achievable concentrations if the clinical Cmax of the agent was known.
Compounds. The drugs and compounds olaparib (NSC753686), talazoparib (NSC767125), berzosertib (NSC777718), elimusertib (NSC800525), nedisertib (NSC802822), VX-984 (NSC792969), AZD-1390 (NSC803789), temozolomide (NSC362856), topotecan (NSC609699), trabectedin (NSC813783), staurosporine (NSC755774), and gemcitabine (NSC613327) were obtained from the National Cancer Institute (NCI) Developmental Therapeutics Program Chemical Repository. The FDA-approved anticancer drug set is available from the Developmental Therapeutics Program at https://dtp.cancer.gov/organization/dscb/obtaining/available_plates.htm. […] The stock solutions were prepared in dimethyl sulfoxide (DMSO, Sigma-Aldrich, St. Louis, MO, cat. D2650) at 400-fold the tested concentration and stored at -70 degrees C. Prior to their use, the stock solutions were diluted in fresh medium and the final DMSO concentration in the assay was 0.25% (v/v). All drugs and investigational agents were tested over a range starting from a high concentration at or near the clinical Cmax and decreasing in half-log increments. If the clinical Cmax for an agent had not been determined, the highest concentration tested was 10 microM.
Cell Lines. The patient-derived cancer cell (PDC) lines: 156681-154-R-J1-PDC, 283228-195-R-J1-PDC, 287954-098-R-J1-PDC, 292921-168-R-J2-PDC, 349418-098-R-PDC, 425362-245-T-J1-PDC, 556581-035-R-J1-PDC, and BL0293-F563-PDC were received from the NCI Patient-Derived Models Repository (PDMR, https://pdmr.cancer.gov). The established cell lines HS-SY-2 (RRID:CVCL_8719), MPNST, and SYO-1 (RRID:CVCL_7146) were obtained from the Sloan Kettering Institute. The alveolar soft parts sarcoma cell line ASPS-1 (RRID:CVCL_S738) was established at the NCI and grown from internal seed stocks. The following established cell lines were purchased from the American Type Culture Collection (ATCC, Manassas, VA): G-401 (ATCC, cat. CRL-1441, RRID:CVCL_0270), SW982 (ATCC, cat. HTB-93, RRID:CVCL_1734), VA-ES-BJ (ATCC, cat. CRL-2138, RRID:CVCL_1785), NCI-H719 (ATCC, cat. CRL-5837, RRID:CVCL_1582), NCI-H196 (ATCC, cat. CRL-5823, RRID:CVCL_1509), NCI-H841 (ATCC, cat. CRL-5845, RRID:CVCL_1595), NCI-H1618 (ATCC, cat. CRL-5879, RRID:CVCL_1480), NCI-H1876 (ATCC, cat. CRL-5902, RRID:CVCL_1503), DMS 114 (ATCC, cat. CRL-2066; RRID:CVCL_1174), NCI-H211 (ATCC, cat. CRL-5824; RRID:CVCL_1529), and SW 1271 (ATCC, cat. CRL-2177, RRID:CVCL_1716). The small cell lung cancer cell line COR-L88 was purchased from Sigma-Aldrich (cat. 92031917-1VL, RRID:CVCL_1141). The non-small cell lung cancer cell lines NCI-H226 (RRID:CVCL_1544) and NCI-H322M (RRID:CVCL_1557) were established at the NCI and grown from internal seed stocks. Pooled donor human umbilical vein endothelial cells (HUVEC, Lonza, cat. CC-2519) and human mesenchymal stem cells (hMSC, Lonza, cat. PT-2501) were purchased from Lonza (Walkersville, MD).
Cell Culture. All cells were maintained in an incubator at 37 degrees C and 5% CO2 with 95% humidity. […]

[1] = second compound 0.003 µM, first compound 0.00949 µM
[2] = second compound 0.003 µM, first compound 0.03 µM
[3] = second compound 0.003 µM, first compound 0.0949 µM
[4] = second compound 0.003 µM, first compound 0.3 µM
[5] = second compound 0.003 µM, first compound 0.949 µM
[6] = second compound 0.003 µM, first compound 3 µM
[7] = second compound 0.00949 µM, first compound 0.00949 µM
[8] = second compound 0.00949 µM, first compound 0.03 µM
[9] = second compound 0.00949 µM, first compound 0.0949 µM
[10] = second compound 0.00949 µM, first compound 0.3 µM
[11] = second compound 0.00949 µM, first compound 0.949 µM
[12] = second compound 0.00949 µM, first compound 3 µM
[13] = second compound 0.03 µM, first compound 0.00949 µM
[14] = second compound 0.03 µM, first compound 0.03 µM
[15] = second compound 0.03 µM, first compound 0.0949 µM
[16] = second compound 0.03 µM, first compound 0.3 µM
[17] = second compound 0.03 µM, first compound 0.949 µM
[18] = second compound 0.03 µM, first compound 3 µM
[19] = second compound 0.0949 µM, first compound 0.00949 µM
[20] = second compound 0.0949 µM, first compound 0.03 µM
[21] = second compound 0.0949 µM, first compound 0.0949 µM
[22] = second compound 0.0949 µM, first compound 0.3 µM
[23] = second compound 0.0949 µM, first compound 0.949 µM
[24] = second compound 0.0949 µM, first compound 3 µM
[25] = second compound 0.3 µM, first compound 0.00949 µM
[26] = second compound 0.3 µM, first compound 0.03 µM
[27] = second compound 0.3 µM, first compound 0.0949 µM
[28] = second compound 0.3 µM, first compound 0.3 µM
[29] = second compound 0.3 µM, first compound 0.949 µM
[30] = second compound 0.3 µM, first compound 3 µM

| SMILES | IC50 (second compound 0.003 µM) [nM] | IC50 (second compound 0.00949 µM) [nM] | IC50 (second compound 0.03 µM) [nM] | IC50 (second compound 0.0949 µM) [nM] | IC50 (second compound 0.3 µM) [nM] | viability, T/C [3] [%] | viability, T/C [4] [%] | viability, T/C [5] [%] | viability, T/C [6] [%] | viability, T/C [9] [%] | viability, T/C [10] [%] | viability, T/C [11] [%] | viability, T/C [12] [%] | viability, T/C [15] [%] | viability, T/C [16] [%] | viability, T/C [17] [%] | viability, T/C [18] [%] | viability, T/C [21] [%] | viability, T/C [22] [%] | viability, T/C [23] [%] | other results |
| --- | --- | --- | --- | --- | --- | --- | --- | --- | --- | --- | --- | --- | --- | --- | --- | --- | --- | --- | --- | --- | --- |
| CNCc1ccc(-c2cc(-c3nc(-c4ccc(S(=O)(=O)C(C)C)cc4)cnc3N)on2)cc1 + CC[C@@]1(O)C(=O)OCc2c1cc1n(c2=O)Cc2cc3c(CN(C)C)c(O)ccc3nc2-1 | 24.5 | < 9.49 | < 9.49 | < 9.49 | < 9.49 | 3.75 | 2.18 | 0.36 | 0.11 | 2.57 | 1.53 | 0.14 | 0.09 | 2.63 | 2.32 | 0.17 | 0.1 | 2.21 | 1.43 | 0.17 | viability, T/C [1]: 85.4%; viability, T/C [2]: 42.5%; viability, T/C [7]: 4.64%; viability, T/C [8]: 3.26%; viability, T/C [13]: 1.95%; viability, T/C [14]: 2.01%; viability, T/C [19]: 1.79%; viability, T/C [20]: 1.82%; viability, T/C [24]: 0.11%; viability, T/C [25]: 1.93%; viability, T/C [26]: 1.65%; viability, T/C [27]: 1.95%; viability, T/C [28]: 1.63%; viability, T/C [29]: 0.24%; viability, T/C [30]: 0.17% |
| Cn1ncnc1[C@H]1c2n[nH]c(=O)c3cc(F)cc(c23)N[C@@H]1c1ccc(F)cc1 + CC[C@@]1(O)C(=O)OCc2c1cc1n(c2=O)Cc2cc3c(CN(C)C)c(O)ccc3nc2-1 | < 9.49 | < 9.49 | < 9.49 | < 9.49 | < 9.49 | 1.89 | 1.63 | 1.45 | 1.47 | 1.68 | 1.41 | 1.63 | 1.37 | 1.7 | 1.53 | 1.32 | 1.28 | 1.72 | 1.66 | 1.34 | viability, T/C [1]: 3.29%; viability, T/C [2]: 2.24%; viability, T/C [7]: 1.7%; viability, T/C [8]: 1.69%; viability, T/C [13]: 1.69%; viability, T/C [14]: 1.49%; viability, T/C [19]: 1.59%; viability, T/C [20]: 1.89%; viability, T/C [24]: 1.13%; viability, T/C [25]: 1.71%; viability, T/C [26]: 1.64%; viability, T/C [27]: 1.52%; viability, T/C [28]: 1.37%; viability, T/C [29]: 1.3%; viability, T/C [30]: 1.04% |
| O=C(c1cc(Cc2n[nH]c(=O)c3ccccc23)ccc1F)N1CCN(C(=O)C2CC2)CC1 + CC[C@@]1(O)C(=O)OCc2c1cc1n(c2=O)Cc2cc3c(CN(C)C)c(O)ccc3nc2-1 | < 94.9 | < 94.9 | < 94.9 | < 94.9 | < 94.9 | 40.5 | 24.1 | 8.02 | 2.93 | 2.56 | 2.35 | 2.18 | 1.79 | 1.56 | 1.76 | 1.49 | 1.64 | 1.91 | 1.81 | 1.99 | viability, T/C (second compound 0.003 µM, first compound 9.49 µM): 2.62%; viability, T/C (second compound 0.003 µM, first compound 30 µM): 2.56%; viability, T/C (second compound 0.00949 µM, first compound 9.49 µM): 2.63%; viability, T/C (second compound 0.00949 µM, first compound 30 µM): 2.34%; viability, T/C (second compound 0.03 µM, first compound 9.49 µM): 1.62%; viability, T/C (second compound 0.03 µM, first compound 30 µM): 1.56%; viability, T/C [24]: 1.8%; viability, T/C (second compound 0.0949 µM, first compound 9.49 µM): 1.74%; viability, T/C (second compound 0.0949 µM, first compound 30 µM): 1.82%; viability, T/C [27]: 2.04%; viability, T/C [28]: 1.92%; viability, T/C [29]: 2.02%; viability, T/C [30]: 1.92%; viability, T/C (second compound 0.3 µM, first compound 9.49 µM): 1.99%; viability, T/C (second compound 0.3 µM, first compound 30 µM): 2.21% |
